Experimental data taken from US10499676B2, “Intestinal barrier integrity” (N.V. Nutricia, priority 2004, dated 2019).

Tests used:
[1] = test system: intestinal epithelial cell line T84 monolayers; assay: Effect of LC-PUFA on basal (spontaneous) barrier integrity: TER and 4 kDa FITC-dextran flux; assay type: cell-based, human; settings: for basal barrier integrity (TER), time and dose dependent effect: FIGS. 1A and 1B, 10 μM and 100 μM; for Flux / Resistance (TER): fatty acid 100 μM, 72 hr incubation, spontaneous barrier integrity; for Flux: 4 kDa FITC-dextran
Experimental: (§1) Monolayers (MC) of intestinal epithelial cell lines T84 (American Type Culture Collection (ATTC), Manassas, USA) were cultured on transwell filters (Corning, Costar BV, The Netherlands) allowing both mucosal and serosal sampling and stimulation of human intestinal epithelial cells. Two weeks post confluency the monolayers were incubated in the luminal compartment with polyunsaturated fatty acids ARA (arachidonic acid; 5,8,11,14-eicosatetraenoic acid), DHA (cis-4,7,10,13,16,19 docosahexaenoic acid), EPA (eicosapentaenoic acid) or control palmitic (C 16:0) acid (Palm) (Sigma, St. Louis, USA). The latter procedure was chosen to mimic the in vivo administration route of the dietary compounds. Cells were incubated with ARA, DHA, EPA, or palmitic acid for 0, 24, 48 and 72 hr at different concentrations (10 μM and 100 μM). Experiments were performed to evaluate basal barrier integrity. The epithelial barrier function was determined by measuring the transepithelial resistance (TER, Ω·cm^2) was measured by epithelial volt-ohm meter (EVOM; World Precision Instruments, Germany) and permeability for 4 kD FITC dextran (paracellular permeability marker, Sigma, USA). Resistance (Epithelial permeability for 4 kDa FITC-dextran was determined as follows. Prior to dextran fluxes the medium was refreshed with culture medium without phenol red for one hour followed by addition of 5 μl (stock 100 mg/ml) 4 kDa FITC-dextran to the lumenal compartment. After 30 min incubation 100 μl sample was collected from the serosal compartment and the fluorescent signal measured at excitation wavelength 485 nm and emission 520 nm (FLUOstar Galaxy®, BMG Labtechnologies, USA). FITC-dextran fluxes were calculated as pmol FITC-dextran/cm^2/h. Statistical analyses were performed using the ANOVA (SPSS version 10).

[2] = test system: intestinal epithelial cell line T84 monolayers incubated with IL-4; assay: Effect of LC-PUFA on IL-4 mediated barrier disruption: TER and 4 kDa FITC-dextran flux; assay type: cell-based, human; settings: for protective effect on IL-4 mediated barrier destruction (Flux), time and dose dependent: FIGS. 2A and 2B, 10 μM and 100 μM, 4 kD dextran flux; for IL-4 Flux / IL-4 TER: fatty acid 100 μM, 48 hr pre-incubation then 48 hr co-incubation with IL-4 2 ng/ml
Experimental: as §1
Monolayers (MC) of intestinal epithelial cell lines T84 (ATCC, USA) were cultured on transwell filters (Corning, Costar BV, The Netherlands) allowing both mucosal and serosal sampling and stimulation of human intestinal epithelial cells. Two weeks post confluency the monolayers were incubated in the presence of IL-4 (2 ng/ml, serosal compartment, Sigma, USA) with or without polyunsaturated fatty acids ARA, DHA, GLA, EPA, or control palmitic acid (10 μM or 100 μM, mucosal compartment, Sigma, St. Louis, USA). Cells were pre-incubated with ARA, DHA, EPA, or palmitic acid for 48 hr prior to the IL-4 incubation. The co-incubation of PUFA's and palmetic acid with IL-4 was continued for another 48 hr; while culture medium and additives were changed every 24 hr. The epithelial barrier function was determined by measuring the transepithelial resistance (TER) and permeability as described in example 1. Statistical evaluation was performed as described in example 1.

[3] = test system: MUC-2 expression in intestinal epithelial T84 cells; settings: FIG. 4, 24 h, 0.025-4.0 mM, compared to propionate and butyrate

SMILES | basal barrier integrity (TER), time and dose dependent effect [1] | Flux [1] | Resistance (TER) [1] | protective effect on IL-4 mediated barrier destruction (Flux), time and dose dependent [2] | IL-4 Flux [2] | IL-4 TER [2] | MUC-2 expression (mucus production) [3]
CCCCC/C=C\C/C=C\C/C=C\C/C=C\CCCC(=O)O [ARA, 5,8,11,14-eicosatetraenoic acid] | increased resistance | 28 pmol FITC-dextran/cm^2/h | 1816 Ω·cm^2 | decreased 4 kD dextran flux | 218 pmol FITC-dextran/cm^2/h | 636 Ω·cm^2 | –
CCC=CCC=CCC=CCC=CCC=CC/C=C\CCC(=O)O [DHA, cis-4,7,10,13,16,19 docosahexaenoic acid] | increased resistance | 72 pmol FITC-dextran/cm^2/h | 1574 Ω·cm^2 | decreased 4 kD dextran flux | 271 pmol FITC-dextran/cm^2/h | 547 Ω·cm^2 | –
CC/C=C\C/C=C\C/C=C\C/C=C\C/C=C\CCCC(=O)O [EPA, eicosapentaenoic acid] | – | 65 pmol FITC-dextran/cm^2/h | 1493 Ω·cm^2 | – | 228 pmol FITC-dextran/cm^2/h | 539 Ω·cm^2 | –
CCCCC/C=C\C/C=C\C/C=C\CCCCC(=O)O [GLA] | increased resistance | – | – | decreased 4 kD dextran flux | – | – | –
CCCCCCCCCCCCCCCC(=O)O [Palmitic acid, palmitic (C 16:0) acid, reference compound] | – | 161 pmol FITC-dextran/cm^2/h | 831 Ω·cm^2 | – | 777 pmol FITC-dextran/cm^2/h | 321 Ω·cm^2 | –
CC(=O)O [acetate] | – | – | – | – | – | – | more potent in stimulating MUC-2 expression
